These results are taken from PubChem BioAssay AID1963960 (Molecular Pharmacology Branch, DTP, NCI, 2024).

By viability, T/C is commonly meant the ratio of treated to control. A word on the IC50: it is the concentration that gives 50% inhibition.

SMILES strings stand for the structures. Where “and” joins values, the source holds several entries; their conditions need not be identical. Identical values can stand only once.

For the experiment, the system named is MDA-MB-468 spheroids with HUVEC/MSC, viability. The experiment in a line: Anticancer human tumor MDA-MB-468 cell line growth inhibition [PI3K].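 As to all read-outs here: spheroids exposed to agents for seven days before readout.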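 As to viability, T/C: 100% = DMSO vehicle control viability.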 To be noted: for viability, T/C: stronger effect = lower value. The method in brief:
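Tumor cells grown as multi-cell spheroids with HUVEC endothelial cells and MSC fibroblast-like stroma were treated with targeted agents combined with inavolisib, alpelisib, duvelisib or copanlisib. Doses fell in half-log steps from near clinical Cmax, else from 10 microM. Viability was measured.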

[1] abbreviates: curve of first compound, second compound 0.0316 µM.
The mark [2] stands for this setting: curve of first compound, second compound 0.1 µM.
Setting [3] is: curve of first compound, second compound 0.316 µM.
The mark [4] stands for this setting: curve of first compound, second compound 1 µM.
[5] abbreviates: second compound 0.0316 µM, first compound 0.0316 µM.
Where [6] appears, read: second compound 0.0316 µM, first compound 0.1 µM.
[7] abbreviates: second compound 0.1 µM, first compound 0.0316 µM.
Where [8] appears, read: second compound 0.1 µM, first compound 0.1 µM.
Where [9] appears, read: second compound 0.316 µM, first compound 0.0316 µM.
The mark [10] stands for this setting: second compound 0.316 µM, first compound 0.1 µM.
Where [11] appears, read: second compound 1 µM, first compound 0.0316 µM.
Where [12] appears, read: second compound 1 µM, first compound 0.1 µM.

On to `Cc1nc(NC(=O)N2CCCC2C(N)=O)sc1-c1ccnc(C(C)(C)C(F)(F)F)c1` (stereo unspecified), for which the viability, T/C reads like this: (compound 0.0316 µM) 89% [middle of 8 runs]; (compound 0.1 µM) 83.7% [middle of 8 runs]; (compound 0.316 µM) 81.1% [middle of 8 runs]; (compound 1 µM) 77.9% [middle of 8 runs]; (compound 3.16 µM) 70.2% [middle of 7 runs]; (compound 10 µM) 44.1% [middle of 8 runs].
Consider `Cn1ncnc1[C@H]1c2n[nH]c(=O)c3cc(F)cc(c23)N[C@@H]1c1ccc(F)cc1` + COc1c(OCCCN2CCOCC2)ccc2c3n(c(=NC(=O)c4cnc(N)nc4)nc12)CCN3, for which the IC50 (curve of first compound, second compound 0.00316 µM) is over 100 nM; the IC50 (curve of first compound, second compound 0.01 µM) is over 100 nM; the IC50 under setting [1] worked out at 83.4 nM; the IC50 under setting [2] is 23.1 nM; the IC50 under setting [3] was under 0.316 nM; the IC50 under setting [4] was under 0.316 nM. Further, the viability, T/C is 103% (second compound 0.00316 µM, first compound 0.000316 µM); 89% (second compound 0.00316 µM, first compound 0.001 µM); 83.8% (second compound 0.00316 µM, first compound 0.00316 µM); 79.1% (second compound 0.00316 µM, first compound 0.01 µM); 69.4% (second compound 0.00316 µM, first compound 0.0316 µM); 57.9% (second compound 0.00316 µM, first compound 0.1 µM). The viability, T/C was 79.7% (second compound 0.01 µM, first compound 0.000316 µM); 89.8% (second compound 0.01 µM, first compound 0.001 µM); 92% (second compound 0.01 µM, first compound 0.00316 µM); 74.7% (second compound 0.01 µM, first compound 0.01 µM); 70.5% (second compound 0.01 µM, first compound 0.0316 µM); 50.1% (second compound 0.01 µM, first compound 0.1 µM). Also, the viability, T/C by setting is: (second compound 0.0316 µM, first compound 0.000316 µM) 75.9%; (second compound 0.0316 µM, first compound 0.001 µM) 84.6%; (second compound 0.0316 µM, first compound 0.00316 µM) 70.2%; (second compound 0.0316 µM, first compound 0.01 µM) 67.1%; under setting [5], 57.6%; under setting [6], 48.4%. Moreover, the viability, T/C (second compound 0.1 µM, first compound 0.000316 µM) is 60.8%; the viability, T/C (second compound 0.1 µM, first compound 0.001 µM) is 65.1%; the viability, T/C (second compound 0.1 µM, first compound 0.00316 µM) was 63.4%; the viability, T/C (second compound 0.1 µM, first compound 0.01 µM) is 55.3%; the viability, T/C under setting [7] was 48%; the viability, T/C under setting [8] was 34.7%. In addition, the viability, T/C reads like this: (second compound 0.316 µM, first compound 0.000316 µM) 29.5%; (second compound 0.316 µM, first compound 0.001 µM) 27.4%; (second compound 0.316 µM, first compound 0.00316 µM) 26.4%; (second compound 0.316 µM, first compound 0.01 µM) 26.9%; under setting [9], 26.7%; under setting [10], 17.5%. For the same compound, the viability, T/C by setting is: (second compound 1 µM, first compound 0.000316 µM) 3.21%; (second compound 1 µM, first compound 0.001 µM) 2.83%; (second compound 1 µM, first compound 0.00316 µM) 2.99%; (second compound 1 µM, first compound 0.01 µM) 4.15%; under setting [11], 3.68%; under setting [12], 2.25%.
`C#Cc1c(F)ccc2cc(O)cc(-c3ncc4c(N5CC6CCC(C5)N6)nc(OCC56CCCN5CC(F)C6)nc4c3F)c12` (stereo unspecified): the viability, T/C (compound 0.0316 µM) is 81.9% [middle of 4 runs]; the viability, T/C (compound 0.1 µM) was 92.6% [middle of 4 runs]; the viability, T/C (compound 0.316 µM) was 92.2% [middle of 4 runs]; the viability, T/C (compound 1 µM) is 100% [middle of 4 runs]; the viability, T/C (compound 10 µM) is 55.1% [middle of 4 runs]. Further, the IC50 (curve of compound) is > 10000 nM and 9960 nM.
In the case of `CC1(C)CCC(CN2CCN(c3ccc(C(=O)NS(=O)(=O)c4ccc(NCC5CCOCC5)c([N+](=O)[O-])c4)c(Oc4cnc5[nH]ccc5c4)c3)CC2)=C(c2ccc(Cl)cc2)C1` + CC(Nc1ncnc2nc[nH]c12)c1cc2cccc(Cl)c2c(=O)n1-c1ccccc1, the IC50 is 4800 nM under setting [1]; 4530 nM under setting [2]; 4300 nM under setting [3]; 3730 nM under setting [4]; 31.6 nM (curve of first compound, second compound 3.16 µM); under 31.6 nM (curve of first compound, second compound 10 µM). In addition, the viability, T/C reads like this: under setting [5], 90.5%; under setting [6], 84.6%; (second compound 0.0316 µM, first compound 0.316 µM) 87%; (second compound 0.0316 µM, first compound 1 µM) 87.4%; (second compound 0.0316 µM, first compound 3.16 µM) 69.9%; (second compound 0.0316 µM, first compound 10 µM) 15.2%. Further, the viability, T/C is 83.8% under setting [7]; 82.2% under setting [8]; 79.6% (second compound 0.1 µM, first compound 0.316 µM); 76.1% (second compound 0.1 µM, first compound 1 µM); 65.1% (second compound 0.1 µM, first compound 3.16 µM); 18.3% (second compound 0.1 µM, first compound 10 µM). In addition, the viability, T/C under setting [9] was 76.5%; the viability, T/C under setting [10] is 68.5%; the viability, T/C (second compound 0.316 µM, first compound 0.316 µM) is 78%; the viability, T/C (second compound 0.316 µM, first compound 1 µM) was 68.8%; the viability, T/C (second compound 0.316 µM, first compound 3.16 µM) is 62.6%; the viability, T/C (second compound 0.316 µM, first compound 10 µM) was 17.2%. In addition, the viability, T/C under setting [11] is 58.9%; the viability, T/C under setting [12] was 65%; the viability, T/C (second compound 1 µM, first compound 0.316 µM) was 69.9%; the viability, T/C (second compound 1 µM, first compound 1 µM) is 72.2%; the viability, T/C (second compound 1 µM, first compound 3.16 µM) is 55.8%; the viability, T/C (second compound 1 µM, first compound 10 µM) is 15.5%. For the same compound, the viability, T/C was 50% (second compound 3.16 µM, first compound 0.0316 µM); 46.9% (second compound 3.16 µM, first compound 0.1 µM); 47.2% (second compound 3.16 µM, first compound 0.316 µM); 49.4% (second compound 3.16 µM, first compound 1 µM); 50.5% (second compound 3.16 µM, first compound 3.16 µM); 13.8% (second compound 3.16 µM, first compound 10 µM). In addition, the viability, T/C (second compound 10 µM, first compound 0.0316 µM) is 38.4%; the viability, T/C (second compound 10 µM, first compound 0.1 µM) was 30.9%; the viability, T/C (second compound 10 µM, first compound 0.316 µM) is 39%; the viability, T/C (second compound 10 µM, first compound 1 µM) is 42.5%; the viability, T/C (second compound 10 µM, first compound 3.16 µM) is 32.3%; the viability, T/C (second compound 10 µM, first compound 10 µM) is 15.4%.
